In US7419984B2, “Pyrimidines and uses thereof” (Cell Therapeutics, Inc., priority 2002, dated 2008):
pIC50: −log10 of the molar value.

target: T1, human LPAAT-β (Homo sapiens, UniProt O15120); assay: LPAAT-β cell-free assay; type: biochemical; details: Sf9 cell membrane overexpressing recombinant LPAAT-β
T1 construct: the full-length human LPAAT-β cDNA was amplified by PCR; poly-histidine tag (N); made in house; host or cells: Sf9 insect cells (baculovirus, pFastBac HTc); the membrane fraction was used as the enzyme
T1 sequence (O15120 24-278): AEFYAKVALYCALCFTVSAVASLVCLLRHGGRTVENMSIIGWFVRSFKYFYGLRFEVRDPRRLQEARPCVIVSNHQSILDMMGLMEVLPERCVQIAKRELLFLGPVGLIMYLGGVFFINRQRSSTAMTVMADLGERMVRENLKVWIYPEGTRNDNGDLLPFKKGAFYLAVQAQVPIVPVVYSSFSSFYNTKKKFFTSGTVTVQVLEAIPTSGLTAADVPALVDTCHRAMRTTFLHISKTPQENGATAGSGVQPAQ
Excerpt: For the construction of Baculovirus expression vectors, the full-length human LPAAT-β cDNA was amplified by PCR from the DNA template pCE9.LPAAT-β (West et al., DNA Cell Bid. 16.691-701 (1997)) using the primers 5′-[…] […] […] […]-3′ (olpb1F; SEQ ID NO:1) and 5′-[…] […] […]-3′ (olpb1R; SEQ ID NO:2). The ˜870 bp fragment generated was reamplified by PCR using the primers 5′ […] […] […] […] ATC-3′ (olpb2F; SEQ ID NO:3) and 5′-[…] […] […]-3′ (olpb1R; SEQ ID NO:2). The ˜890 bp fragment generated was then cleaved with Sal I and Xba I for insertion into pFastBac™ HTc vector (Life Technologies, Gaithersberg, M.d.) between the Sal I and Xba I sites for the generation of the plasmid pFB.LPAAT-β. This plasmid was then transformed into E. coli DH10Bac™ (Life Technologies, Gaithersberg, M.d.) for the generation of recombinant Bacmid DNA for transfection in HighFive (Invitrogen, San Diego, Calif.) or SF9 insect cells for the production of recombinant Baculovirus stocks using the protocol described in the Bac-to-Bac® Baculovirus Expression System (Life Technologies, Gaithersberg, M.d.), a eukaryotic expression system for generating recombinant baculovirus through site-specific transposition in E. coli. Viral stocks harvested from the transfected cells can then be used to infect fresh insect cells for the subsequence expression of LPAAT-β fusion protein with a poly-histidine tag and a myc-epitope near its N-terminus. The membrane fraction from these Sf9 cells would be the source of LPAAT enzyme.
For the preparation of membranes from Sf9 Cells, all steps are performed on ice or at 4° C. Sf9 cell pellets (˜10^8 cells) were thawed and resuspended in 1-2 ml of buffer A (20 mM Hepes, pH 7.5, 1 mM DTT, 1 mM EDTA, 20% w/v glycerol, 1 mM Benzamidine, 1 μg/ml soybean trypsin inhibitor (SBTI), 1 μug/ml pepstatin A) w/o DTT but with 1 mM Pefabloc. The cells were lysed by sonication using a Branson Sonifier at output=2, duty cycle=2, 10 pulses each at 10 s. with the tip of small sonicator probe submerged but not touching the walls. DTT was then added to 1 mM from a 1 M stock. The samples were centrifuged at 1500 rpm for 5 min. The low speed supernatant was saved and centrifuged (TLA 100.3 rotor, polycarbonate tubes, 2 ml/tube or 1.5 ml/tube minimum) at 100000×g for 1 hr. The high speed pellet was resuspend in Buffer A with a probe sonicator (10 pulses @ output #2 and duty cycle 20%) as a source of LPAAT enzyme.
LPAAT-β catalyzes the transfer of an acyl group from a donor such as acyl-CoA to LPA. The transfer of the acyl group from acyl-CoA to LPA leads to the release of free CoA, which can be reacted with the thiol reagent, 5,5′-dithiobis(2-nitrobenzoic acid) (DTNB). The reaction between DTNB and the free sulfhydryl group from CoA generates a yellow-colored product, 3-carboxylato-4-nitrothiophenolate (CNP), that absorbs at 413 nm. LPAAT-β derived from Sf9 cell membrane overexpressing LPAAT-β were resuspended in HEPES saline buffer (20 mM HEPES pH 7.5, 150 mM NaCl), 1 mg/ml BSA and 72 μl aliquots were distributed into 96-well microtiter plates. 8 μl of compound of interest at 200 μM dissolved in 100% DMSO was added into each well. […] of 1 mM 18:1-CoA and 1 mM sn-1-18:1 lysoPA was then added to each well to initiate the reaction and allowed to run at room temperature for 25 min. 100 μl of 1 mM DTNB in 100% ethanol was then added to each well to quench the reaction and for color development. The absorbance at 405 nm, measured using a spectrophotometer plate reader, is proportional to the activity of LPAAT-2 in the sample. This colorimetric assay was used for the high throughput screening of LPAAT inhibitors.
The radiometric assay was carried out in Sf9 cell membrane overexpressing LPAAT-β resuspended in HEPES-saline buffer, pH 7.5, 1 mg/ml BSA, 1 mM EDTA and 200 μM [^14C]18:1-CoA and 200 μM sn-1-18:1 lysoPA.

SMILES | pIC50 | LPAAT-β cell-free assay (IC50, μM)
Cc1ccc(Cl)cc1-c1cc(Nc2ccc(CCO)cc2)nc(N)n1 [Example 49, 2-{4-[2-Amino-6-(5-chloro-2-methyl-phenyl)-pyrimidin4-ylamino]-phenyl}-ethanol] | 7.31 | –
COc1ccc(Cl)cc1-c1cc(Nc2ccc(CCO)cc2)nc(N)n1 [Example 50, 2-{4-[2-Amino-6-(5-chloro-2-methoxy-phenyl)-pyrimidin-4-ylamino]-phenyl}-ethanol] | 7.34 | –
COc1ccc(Cl)cc1-c1nc(N)nc(Nc2ccc3cn[nH]c3c2)c1C [Example 51, 6-(5-Chloro-2-methoxy-phenyl)-5-methyl-N*4*-(1H-indazol-6-yl)-pyrimidine-2,4-diamine] | – | Lessactive
COc1ccc(Cl)cc1-c1nc(N)nc(Nc2ccc3cn[nH]c3c2)c1Br [Example 52, 5-Bromo-6-(5-chloro-2-methoxy-phenyl)-N*4*-(1H-indazol-6-yl)-pyrimidine-2,4-diamine] | 6.30 | –
CCOc1ccc(Cl)cc1-c1cc(Nc2ccc(C)cc2)nc(N)n1 [Example 53, 6-(5-Chloro-2-ethoxy-phenyl)-N*4*-p-tolyl-pyrimidine-2,4-diamine] | 7.02 | –
CCOc1ccc(Cl)cc1-c1cc(Nc2ccc3cn[nH]c3c2)nc(N)n1 [Example 54, 6-(5-Chloro-2-ethoxy-phenyl)-N*4*-(1H-indazol-6-yl)-pyrimdine-2,4-diamine] | 7.62 | –
CCOc1ccc(Cl)cc1-c1cc(Nc2ccc(Cl)cc2)nc(N)n1 [Example 55, 6-(5-Chloro-2-ethoxy-phenyl)-N*4*-(4-chloro-phenyl)-pyrimidine-2,4-diamine] | 7.77 | –
CCOc1ccc(Cl)cc1-c1cc(Nc2ccc(C(F)(F)F)cc2)nc(N)n1 [Example 56, 6-(5-Chloro-2-ethoxy-phenyl)-N*4*-(4-trifluoromethyl-phenyl)-pyrimidine-2,4-diamine] | 7.15 | –
CCOc1ccc(Cl)cc1-c1cc(Nc2ccc(C#N)cc2)nc(N)n1 [Example 57, 4-[2-Amino-6-(5-chloro-2-ethoxy-phenyl)-pyrimidin4-ylamino]-benzonitrile] | 7.66 | –
CCOc1ccc(Cl)cc1-c1cc(Nc2ccc(OC)cc2)nc(N)n1 [Example 58, 6-(5-Chloro-2-ethoxy-phenyl)-N*4*-(4-methoxy-phenyl)-pyrimidine-2,4-diamine] | 6.70 | –
CCOc1ccc(Br)cc1-c1cc(Nc2ccc(C(=O)c3ccccc3)cc2)nc(N)n1 [Example 59, {4-[2-Amino-6-(5-bromo-2-ethoxy-phenyl)-pyrimidin4-ylamino]-phenyl}-phenyl-methanone] | 6.68 | –
CCOc1ccc(Br)cc1-c1cc(Nc2ccc(C(F)(F)F)cc2)nc(N)n1 [Example 60, 6-(5-Bromo-2-ethoxy-phenyl)-N*4*-(4-trifuoromethyl-phenyl)-pyrimidin-2,4-diamine] | 7.22 | –
CCOc1ccc(Br)cc1-c1cc(Nc2ccc(C(=O)OC)cc2)nc(N)n1 [Example 61, 4-[2-Amino-6-(5-bromo-2-ethoxy-phenyl)-pyrimidin-4-ylamino]-benzoic acid methyl ester] | 6.46 | –
CCOc1ccc(Br)cc1-c1cc(Nc2ccc(CO)cc2)nc(N)n1 [Example 62, {4-[2-Amino-6-(5-bromo-2-ethoxy-phenyl)-pyrimidin4-ylamino]-phenyl}-methanol] | 7.10 | –
CCOc1ccc(Cl)cc1-c1cc(Nc2ccc(COC(=O)CCC(=O)O)cc2)nc(N)n1 [Example 63, Succinic acid mono-{4-[2-amino-6-(5-chloro-2-ethoxy-phenyl)-pyrimidin-4-ylamino]-benzyl}-ester] | 7.08 | –
CCOc1ccc(Cl)cc1-c1cc(Nc2ccc(COC(=O)CN)cc2)nc(N)n1 [Example 64, Amino acetic acid-4-[2-amino-6-(5-chloro-2-ethoxy-phenyl)-pyrimidin-4-ylamino]-benzyl ester] | 5.82 | –
CCOc1ccc(Cl)cc1-c1cc(Nc2ccc(CO)cc2)nc(NC)n1 [Example 65, {4-[6-(5-Chloro-2-ethoxy-phenyl)-2-methylamino-pyrimidin4-ylamino]-phenyl}-methanol] | 6.85 | –
CCOc1ccc(Cl)cc1-c1cc(Nc2ccc(-c3cnco3)cc2)nc(N)n1 [Example 66, 6-(5-Chloro-2-ethoxy-phenyl)-N*4*-(4-oxazol-5-yl-phenyl)-pyrimidine-2,4-diamine] | 6.35 | –
CCOc1ccc(Br)cc1-c1cc(Nc2ccc(CCO)cc2)nc(N)n1 [Example 70, 2-{4-[2-Amino-6-(5-bromo-2-ethoxy-phenyl)-pyrimidin-4-ylamino]-phenyl}-ethanol] | 7.54 | –
COc1ccc(C)c(-c2cc(Nc3ccc(Cl)cc3)nc(N)n2)c1 [Example 71, N*4*-(4-Chloro-phenyl)-6-(5-methoxy-2-methyl-phenyl)-pyrimidine-2,4-diamine] | 6.68 | –
Nc1nc(Nc2ccc(Cl)cc2)cc(-c2cc(Br)ccc2O)n1 [Example 72, 2-[2-Amino-6-(4-chloro-phenylamino)-pyrimidin-4-yl]-4-bromo-phenol] | 6.35 | –
Cc1ccc(C)c(-c2cc(Nc3ccc(Cl)cc3)nc(N)n2)c1 [Example 73, N*4*-(4-Chloro-phenyl)-6-(2,5-dimethyl-phenyl)-pyrimidine-2,4-diamine] | 6.80 | –
Cc1ccc(C)c(-c2cc(Nc3ccc(CCO)cc3)nc(N)n2)c1 [Example 74, 2-{4-[2-Amino-6-(2,5-dimethyl-phenyl)-pyrimidin-4-ylamino]-phenyl}-ethanol] | 6.26 | –
CNC(=O)c1cc(Nc2cc(-c3cc(Br)ccc3C)nc(N)n2)ccc1Cl [Example 75, 5-[2-Amino-6-(5-bromo-2-methyl-phenyl)-pyrimidin-4-ylamino]-2-chloro-N-methyl-benzamide] | 6.74 | –
Cc1ccc(F)cc1-c1cc(Nc2ccc(C(F)(F)F)cc2)nc(N)n1 [Example 76, 6-(5-Fluoro-2-methyl-phenyl)-N*4*-(4-trifluoromethyl-phenyl)-pyrimidine-2,4-diamine] | 6.15 | –
CNC(=O)c1cc(Nc2cc(-c3cc(Cl)ccc3C)nc(N)n2)ccc1Br [Example 77, 5-[2-Amino-6-(5-chloro-2-methyl-phenyl)-pyrimidin4-ylamino]-2-bromo-N-methyl-benzamide] | 6.43 | –
CNC(=O)c1cc(Nc2cc(-c3cc(Br)ccc3C)nc(N)n2)ccc1Br [Example 78, 5-[2-Amino-6-(5-bromo-2-methyl-phenyl)-pyrimidin-4-ylamino]-2-bromo-N-methyl-benzamide] | 6.68 | –
Cc1ccc(Cl)cc1-c1cc(Nc2ccc3c(c2)C(=O)NC3=O)nc(N)n1 [Example 79, 5-[2-Amino-6-(5-chloro-2-methyl-phenyl)-pyrimidin4-ylamino]-isoindole-1,3-dione] | 6.05 | –
Cc1ccc(Br)cc1-c1cc(Nc2ccc(N=[N+]=[N-])cc2)nc(N)n1 [Example 81, [6-(5-Bromo-2-methyl-phenyl)-(4-azido-phenyl)-pyrimidine]-2,4-diamine] | 6.72 | –
